From ChEMBL document CHEMBL5226288, “A perspective on medicinal chemistry approaches towards adenomatous polyposis coli and Wnt signal based colorectal cancer inhibitors” (Eur J Med Chem, 2021)
Values belong to the compound of their own block, whether it stands above or below them. Non-standard residues stand in square brackets, D forms with d. Residues, ends and D or L forms follow the SMILES beside them. *: point of attachment. Ala(cPent) = N[C@@H](CC1CCCC1)C(=O)O; Cbz = O=C(OCc1ccccc1)*

How the values were obtained:
[1] = molecular target: T1, 7-dehydrocholesterol reductase (Homo sapiens, UniProt Q9UBM7); experiment: Inhibition of DHCR7 (unknown origin)
T1 sequence (Q9UBM7 whole entry): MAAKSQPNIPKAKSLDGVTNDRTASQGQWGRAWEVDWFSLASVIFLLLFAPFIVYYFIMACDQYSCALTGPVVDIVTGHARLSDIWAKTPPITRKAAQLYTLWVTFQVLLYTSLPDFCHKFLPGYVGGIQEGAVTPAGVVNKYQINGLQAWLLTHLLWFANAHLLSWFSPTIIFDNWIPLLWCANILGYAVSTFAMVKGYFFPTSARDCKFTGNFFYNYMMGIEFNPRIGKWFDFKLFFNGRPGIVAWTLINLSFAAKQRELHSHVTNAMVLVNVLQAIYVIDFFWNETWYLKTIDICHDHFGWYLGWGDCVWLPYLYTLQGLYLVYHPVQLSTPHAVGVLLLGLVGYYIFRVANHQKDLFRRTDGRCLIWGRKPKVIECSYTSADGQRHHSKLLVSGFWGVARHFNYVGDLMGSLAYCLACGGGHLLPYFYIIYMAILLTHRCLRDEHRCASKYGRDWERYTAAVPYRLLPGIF

[2] = molecular target: 3-beta-hydroxysteroid-Delta(8),Delta(7)-isomerase (Homo sapiens, UniProt Q15125); experiment: Inhibition of EBP (unknown origin)
3-beta-hydroxysteroid-Delta(8),Delta(7)-isomerase, sequence (Q15125 whole entry): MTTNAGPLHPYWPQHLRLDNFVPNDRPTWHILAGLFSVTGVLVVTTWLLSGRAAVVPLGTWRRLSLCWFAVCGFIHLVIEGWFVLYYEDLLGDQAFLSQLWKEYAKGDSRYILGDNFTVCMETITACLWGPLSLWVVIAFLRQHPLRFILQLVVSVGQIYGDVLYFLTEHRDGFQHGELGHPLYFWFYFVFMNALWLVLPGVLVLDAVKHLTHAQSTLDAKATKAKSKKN

[3] = Inhibition of Wnt/beta-catenin signaling pathway in mouse L Wnt-3A cells harbouring STF-reporter gene assessed as assessed as reduction in luciferase activity incubated for 24 hrs by luciferase reporter assay; assay type: cell-based
[4] = test system: HCT-116; experiment: Anticancer activity against human HCT-116 cells assessed as reduction in cell viability incubated for 24 hrs by Cell Titer-Glo assay; assay type: functional, cell-based; settings: HCT-116, 24 h
[5] = test system: DLD-1; experiment: Anticancer activity against human DLD-1 cells assessed as reduction in cell viability incubated for 24 hrs by Cell Titer-Glo assay; assay type: functional, cell-based; settings: DLD-1, 24 h
[6] = molecular target: T2, Adenomatous polyposis coli protein (Homo sapiens, UniProt P25054); experiment: Inhibition of APC (303 to 739 residues) (unknown origin) preincubated for 60 mins followed by substrate addition and measured after 60 mins using Ac-GGGGEQLAINELISDGK-FITC as substrate by fluorescence polarization assay
T2 sequence (P25054 whole entry, the tested form may be a part): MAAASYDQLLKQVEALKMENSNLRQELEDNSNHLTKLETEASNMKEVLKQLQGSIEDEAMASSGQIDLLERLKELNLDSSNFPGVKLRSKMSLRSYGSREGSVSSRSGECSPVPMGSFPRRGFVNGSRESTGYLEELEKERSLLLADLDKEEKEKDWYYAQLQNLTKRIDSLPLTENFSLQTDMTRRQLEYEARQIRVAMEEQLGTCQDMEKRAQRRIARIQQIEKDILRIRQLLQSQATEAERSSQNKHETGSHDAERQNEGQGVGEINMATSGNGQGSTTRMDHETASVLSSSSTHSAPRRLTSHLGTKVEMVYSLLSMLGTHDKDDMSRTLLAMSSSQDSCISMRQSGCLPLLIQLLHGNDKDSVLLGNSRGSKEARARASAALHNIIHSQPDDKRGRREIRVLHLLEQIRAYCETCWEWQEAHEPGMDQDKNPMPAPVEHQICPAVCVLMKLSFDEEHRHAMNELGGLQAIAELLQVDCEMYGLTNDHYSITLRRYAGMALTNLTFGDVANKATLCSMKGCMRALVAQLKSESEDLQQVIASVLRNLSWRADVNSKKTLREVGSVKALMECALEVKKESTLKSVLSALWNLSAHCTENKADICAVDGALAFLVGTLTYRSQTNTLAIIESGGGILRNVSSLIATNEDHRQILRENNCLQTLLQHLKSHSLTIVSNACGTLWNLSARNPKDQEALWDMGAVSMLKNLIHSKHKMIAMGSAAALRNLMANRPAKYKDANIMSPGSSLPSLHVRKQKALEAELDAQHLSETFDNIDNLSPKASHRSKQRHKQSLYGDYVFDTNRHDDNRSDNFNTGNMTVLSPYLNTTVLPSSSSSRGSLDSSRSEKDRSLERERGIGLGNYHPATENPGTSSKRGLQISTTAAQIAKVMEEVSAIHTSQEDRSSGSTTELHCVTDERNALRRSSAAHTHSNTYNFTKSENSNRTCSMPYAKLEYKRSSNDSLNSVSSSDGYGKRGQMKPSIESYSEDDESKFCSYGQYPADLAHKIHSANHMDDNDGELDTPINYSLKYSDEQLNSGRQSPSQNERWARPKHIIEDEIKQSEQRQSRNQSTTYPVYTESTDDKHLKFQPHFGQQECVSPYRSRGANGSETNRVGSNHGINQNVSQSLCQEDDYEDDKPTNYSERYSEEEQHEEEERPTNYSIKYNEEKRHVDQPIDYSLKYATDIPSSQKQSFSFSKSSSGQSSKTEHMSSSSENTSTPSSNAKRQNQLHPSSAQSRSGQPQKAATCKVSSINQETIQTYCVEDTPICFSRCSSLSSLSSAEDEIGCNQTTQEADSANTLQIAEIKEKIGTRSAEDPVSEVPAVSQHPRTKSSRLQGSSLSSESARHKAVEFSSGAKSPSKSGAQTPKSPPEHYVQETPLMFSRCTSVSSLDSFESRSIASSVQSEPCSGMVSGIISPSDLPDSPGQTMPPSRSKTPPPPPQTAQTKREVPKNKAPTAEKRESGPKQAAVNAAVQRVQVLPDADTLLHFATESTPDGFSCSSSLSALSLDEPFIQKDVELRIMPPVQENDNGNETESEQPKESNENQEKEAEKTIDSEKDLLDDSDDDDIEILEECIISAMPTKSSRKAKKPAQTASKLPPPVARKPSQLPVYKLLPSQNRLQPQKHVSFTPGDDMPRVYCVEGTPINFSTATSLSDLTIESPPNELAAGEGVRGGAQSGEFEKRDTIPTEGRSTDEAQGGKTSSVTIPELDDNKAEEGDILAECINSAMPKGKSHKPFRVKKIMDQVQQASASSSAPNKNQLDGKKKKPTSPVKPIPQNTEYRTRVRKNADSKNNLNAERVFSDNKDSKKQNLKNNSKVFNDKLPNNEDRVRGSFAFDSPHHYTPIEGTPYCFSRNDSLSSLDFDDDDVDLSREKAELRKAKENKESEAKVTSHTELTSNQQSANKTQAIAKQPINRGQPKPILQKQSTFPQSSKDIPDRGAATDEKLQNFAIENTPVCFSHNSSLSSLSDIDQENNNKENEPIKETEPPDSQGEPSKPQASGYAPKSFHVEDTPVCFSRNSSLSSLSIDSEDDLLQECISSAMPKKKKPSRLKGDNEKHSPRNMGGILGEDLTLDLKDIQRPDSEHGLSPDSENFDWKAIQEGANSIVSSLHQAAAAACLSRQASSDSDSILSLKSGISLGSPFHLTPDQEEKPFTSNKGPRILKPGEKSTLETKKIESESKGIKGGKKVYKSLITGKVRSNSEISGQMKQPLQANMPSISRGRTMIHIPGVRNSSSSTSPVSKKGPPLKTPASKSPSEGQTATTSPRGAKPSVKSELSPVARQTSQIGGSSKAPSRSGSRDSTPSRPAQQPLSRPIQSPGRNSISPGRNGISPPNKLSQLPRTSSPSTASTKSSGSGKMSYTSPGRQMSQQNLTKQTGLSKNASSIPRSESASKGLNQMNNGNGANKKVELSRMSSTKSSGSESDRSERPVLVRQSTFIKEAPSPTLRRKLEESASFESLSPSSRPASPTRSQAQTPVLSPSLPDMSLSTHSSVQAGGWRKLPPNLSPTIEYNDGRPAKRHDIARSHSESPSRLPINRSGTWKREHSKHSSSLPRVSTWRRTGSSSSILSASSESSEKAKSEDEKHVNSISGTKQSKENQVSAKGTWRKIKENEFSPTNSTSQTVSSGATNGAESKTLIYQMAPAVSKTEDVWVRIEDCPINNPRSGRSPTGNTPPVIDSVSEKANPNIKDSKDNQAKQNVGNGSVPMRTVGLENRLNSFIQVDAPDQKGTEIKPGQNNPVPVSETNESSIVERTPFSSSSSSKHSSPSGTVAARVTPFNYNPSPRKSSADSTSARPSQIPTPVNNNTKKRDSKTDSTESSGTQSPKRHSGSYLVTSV

[7] = molecular target: T2, Adenomatous polyposis coli protein; experiment: Inhibition of APC (303 to 739 residues) (unknown origin) assessed as inhibition constant preincubated for 60 mins followed by substrate addition and measured after 60 mins using Ac-GGGGEQLAINELISDGK-FITC as substrate by fluorescence polarization assay
[8] = molecular target: DNA polymerase beta (Homo sapiens, UniProt P06746); experiment: Inhibition of human DNA polymerase beta using 32P-labeled 63-mer F-DNA substrate preincubated for 5 mins followed by substrate addition and measured after 45 mins by autoradiography
[9] = test system: SW480; experiment: Anticancer activity against human SW480 cells assessed as reduction in cell viability; assay type: functional, cell-based
[10] = test system: SW480; experiment: Anticancer activity against human SW480 cells assessed as cell growth inhibition by SRB assay; assay type: functional, cell-based
[11] = test system: DLD-1; experiment: Anticancer activity against human DLD-1 cells assessed as cell growth inhibition by SRB assay; assay type: functional, cell-based
[12] = test system: HCT-116; experiment: Anticancer activity against human HCT-116 cells assessed as reduction in cell viability; assay type: functional, cell-based
[13] = test system: HCT-116; experiment: Antiproliferative activity against human HCT-116 cells assessed as reduction in cell proliferation incubated for 72 hrs by MTS assay; assay type: functional, cell-based; settings: HCT-116, 72 h

Compound: CC1CCN(C2CCN(S(=O)(=O)c3ccc(OC(C)C)cc3)CC2)CC1
IC50 [1]: 0.03 µM
IC50 [2]: < 1 µM

Compound: CC(=O)Nc1cccc(-n2c(=O)n(C3CC3)c(=O)c3c(Nc4ccc(I)cc4F)n(C)c(=O)c(C)c32)c1 [TRAMETINIB]
IC50 [4]: 1.16 µM
IC50 [5]: 1.34 µM

Compound: COc1cccc(Nc2nc(NS(=O)(=O)c3cc(C)c(C)cc3C)n[nH]2)c1
IC50 [8]: < 50 µM

Compound: O=C1Nc2ccccc2C12OCC1(CO2)COC2(OC1)C(=O)Nc1ccccc12 (configuration not stated)
IC50 [9]: 0.69 µM

Compound: CC/C(=N/NC(=O)c1ccnc(NCCN2CCOCC2)c1)c1ccc(C)cc1O
IC50 [10]: 0.9 µM
IC50 [11]: 0.5 µM

Compound: NC1=NC(=O)N(C2CC(O)C(COP(=O)(O)O)O2)C(I)C1 (configuration not stated)
IC50 [12]: < 50 µM

Compound: Cc1cc(C)c(S(=O)(=O)Nc2n[nH]c(Nc3ccccc3)n2)cc1C
IC50 [8]: < 50 µM

Compound: N#CC(=C(/N)Sc1ccccc1N)/C(C#N)=C(\N)Sc1ccccc1N
IC50 [4]: 0.94 µM
IC50 [5]: 1.14 µM

Compound: H-GGEQLAI-OH
IC50 [6]: 135 µM
Ki [7]: 44.6 µM

Compound: COC(=O)c1c(C)cc2c(c1O)[C@]1(O)C(=O)c3cc4c(c(O)c3C(=O)[C@]1(OC)[C@H](O)C2)C(=O)C=C(N[C@H]1O[C@@H](C)[C@H](OC)[C@@H](O)[C@H]1OC)C4=O
IC50 [13]: < 0.15 µM

Compound: COc1c(C[C@@H](C)OC(=O)c2c(C)cc(O)cc2O)c2c3c(C[C@@H](C)OC(=O)c4c(C)cc(O)cc4O)c(OC)c(=O)c4c(O)cc(OC)c(c5c(OC)cc(O)c(c1=O)c52)c43
IC50 [13]: 3.6 µM

Compound: COc1c(C[C@@H](C)OC(=O)Oc2ccc(O)cc2)c2c3c(C[C@@H](C)OC(=O)c4ccccc4)c(OC)c(=O)c4c(O)cc(OC)c(c5c(OC)cc(O)c(c1=O)c52)c43 [CALPHOSTIN C]
IC50 [13]: 2.86 µM

Compound: Cc1cc(C)c(S(=O)(=O)Nc2n[nH]c(Nc3ccc4ccccc4c3)n2)cc1C
IC50 [8]: < 50 µM

Compound: Cn1cnc2c(F)c(Nc3ccc(Br)cc3Cl)c(C(=O)NOCCO)cc21 [SELUMETINIB]
IC50 [4]: 0.95 µM
IC50 [5]: 1.25 µM

Compound: C[C@H](NC(=O)OCc1ccccc1)C(=O)NCC(=O)N[C@@H](CCC(=O)O)C(=O)N[C@@H](C)C(=O)N[C@@H](CC1CCCC1)C(=O)N[C@@H](Cc1ccc(O)cc1)C(=O)N[C@@H](CCC(=O)O)C(=O)O (Cbz-AGEA[Ala(cPent)]YE-OH)
IC50 [6]: 0.57 µM
Ki [7]: 0.015 µM

Compound: Cc1ccc(-c2ccc(S(=O)(=O)N3CCC(N4CCC(C)CC4)CC3)cc2)cc1
IC50 [1]: 0.0001 µM
IC50 [2]: 0.049 µM

Compound: Ac-GGEALAD-OH
IC50 [6]: 12.2 µM
Ki [7]: 3.8 µM

Compound: Cn1ncnc2c(=O)n(C)c(=O)nc1-2
IC50 [13]: 2.86 µM

Compound: Cc1ccc(-n2nc(C(=O)NCC(=O)Nc3nc4ccc(C)cc4s3)c3c(c2=O)SCC3)cc1
IC50 [3]: 0.025 µM

The remaining lines, values ahead:

IC50 [3]: 0.04 µM
Compound: COc1ccccc1-n1nc(C(=O)NCC(=O)Nc2nc3ccc(C)cc3s2)c2c(c1=O)SCC2

IC50 [6]: 10.1 µM
Ki [7]: 3.12 µM
Compound: Ac-GGEALAW-OH

IC50 [1]: 50 µM
IC50 [2]: 0.303 µM
Compound: Cc1cc(C)c(S(=O)(=O)N2CCC([N+]3(C)CCCC3)CC2)c(C)c1

IC50 [1]: 1.07 µM
IC50 [2]: 0.00295 µM
Compound: Cc1cc(C)c(S(=O)(=O)N2CCC(NCc3ccccc3)CC2)c(C)c1

IC50 [3]: 0.058 µM
Compound: COc1ccc(-n2nc(C(=O)NCC(=O)Nc3nc4ccc(OC)cc4s3)c3ccccc3c2=O)cc1

IC50 [12]: 28.8 µM
IC50 [9]: 10.8 µM
Compound: CCOC(=O)C[C@H](NC(=O)[C@H](Cc1c[nH]c2ccccc12)NC(=O)Cc1cc2cc(C)ccc2[nH]1)C(=O)N[C@@H](CCC(=O)O)C(=O)OC

IC50 [6]: 7.97 µM
Ki [7]: 2.41 µM
Compound: Ac-AGEALAD-OH

IC50 [13]: 0.78 µM
Compound: CCCC(=O)c1cc2c(c(O)c1C)C(=O)C(=O)c1c(O)cccc1-2

IC50 [10]: 1.7 µM
IC50 [11]: 0.9 µM
Compound: CC/C(=N/NC(=O)c1ccccc1)c1cc(C)cc(C)c1O

IC50 [12]: 0.58 µM
Compound: COC(=O)c1cccc(NS(=O)(=O)c2ccc(C)cc2)c1

IC50 [10]: 0.6 µM
IC50 [11]: 1 µM
Compound: Cc1cc(C(=O)N/N=C\c2ccccc2O)c2cc(Br)ccc2n1

IC50 [12]: 0.008 µM
IC50 [9]: 0.015 µM
Compound: CN1CCN(S(=O)(=O)c2ccc(N3CCCC3=O)cc2)c2ccccc21

IC50 [6]: 1.09 µM
Ki [7]: 0.12 µM
Compound: CC(C)C[C@H](NC(=O)[C@H](C)NC(=O)[C@H](CCC(=O)O)NC(=O)CNC(=O)[C@H](C)NC(=O)OCc1ccccc1)C(=O)N[C@@H](Cc1ccc(O)cc1)C(=O)N[C@@H](CCC(=O)O)C(=O)O (Cbz-AGEALYE-OH)

IC50 [8]: < 50 µM
Compound: Cc1cc(SC(=O)O)c(S(=O)(=O)Nc2n[nH]c(Nc3ccccc3)n2)cc1C

IC50 [3]: 0.027 µM
Compound: Cc1ccc2nc(NC(=O)CNC(=O)c3nn(-c4ccccc4)c(=O)c4c3CCS4)sc2c1

IC50 [12]: < 50 µM
Compound: Cn1nnc2c(C(N)=O)ncn2c1=O [TEMOZOLOMIDE]

IC50 [1]: 2.04 µM
IC50 [2]: 0.188 µM
Compound: Cc1cc(C)c(S(=O)(=O)N2CCC(N3CN4CCC3CC4)CC2)c(C)c1

IC50 [1]: 1.39 µM
IC50 [2]: 0.00936 µM
Compound: Cc1cc(C)c(S(=O)(=O)N2CCC(N3CCCCCC3)CC2)c(C)c1
